Each structure is given as a SMILES string. Activity calls are given as the source filed them. Rule as the data show it: actives have a measured IC50 and inactives only a lower limit.

In the assay the target is Envelope glycoprotein gp160 (Human immunodeficiency virus 1, UniProt Q6QLK5). Nature of the assay: inhibitors of HIV fusion peptide binding, primary screen, biochemical, uHTS, fluorescence dequenching (AID 1986).
Envelope glycoprotein gp160, sequence (Q6QLK5 whole entry, the tested form may be a part): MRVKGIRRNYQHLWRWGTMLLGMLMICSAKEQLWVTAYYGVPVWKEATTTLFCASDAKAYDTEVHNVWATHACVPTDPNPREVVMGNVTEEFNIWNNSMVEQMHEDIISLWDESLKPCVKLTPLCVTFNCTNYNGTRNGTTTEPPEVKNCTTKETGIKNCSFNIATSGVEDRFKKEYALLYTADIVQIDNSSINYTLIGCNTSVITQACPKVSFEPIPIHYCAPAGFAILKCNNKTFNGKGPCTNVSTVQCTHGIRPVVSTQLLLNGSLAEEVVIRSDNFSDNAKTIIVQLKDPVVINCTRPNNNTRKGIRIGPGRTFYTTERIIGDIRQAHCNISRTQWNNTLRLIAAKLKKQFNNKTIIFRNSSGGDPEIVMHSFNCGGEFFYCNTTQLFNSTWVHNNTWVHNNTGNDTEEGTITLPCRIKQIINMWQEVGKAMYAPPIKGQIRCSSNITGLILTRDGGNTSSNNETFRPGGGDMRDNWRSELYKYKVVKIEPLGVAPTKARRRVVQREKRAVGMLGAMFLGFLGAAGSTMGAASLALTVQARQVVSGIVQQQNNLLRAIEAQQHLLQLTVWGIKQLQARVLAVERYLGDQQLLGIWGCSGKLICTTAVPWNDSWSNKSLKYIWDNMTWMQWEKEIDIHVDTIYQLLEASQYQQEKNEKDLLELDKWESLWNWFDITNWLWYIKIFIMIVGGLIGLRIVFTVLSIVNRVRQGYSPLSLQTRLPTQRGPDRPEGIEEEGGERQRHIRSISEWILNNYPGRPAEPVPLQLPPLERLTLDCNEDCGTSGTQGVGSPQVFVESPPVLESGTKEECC
As a reminder, the IC50 is the concentration at which inhibition is half-maximal. In the case of `COc1cc(Cl)cc(C(c2c(C(=O)O)[nH]c3ccccc23)c2c(C(=O)O)[nH]c3ccccc23)c1O`, the IC50 was 4.81 µM (active).
In the case of `O=C1N=C(NS(=O)(=O)c2ccccc2)S/C1=C\c1cc([N+](=O)[O-])ccc1O`, the IC50 is 12.7 µM (active).
Regarding `N=C1/C(=C/c2ccc(-c3cccc(C(=O)O)c3)o2)C(=O)N=C2SC=C(c3ccccc3)N12`, the IC50 was 6.34 µM (active).
Take `COc1cc(/C=C2\C(=N)N3N=C(S(C)(=O)=O)SC3=NC2=O)ccc1OS(=O)(=O)c1ccccc1`: the IC50 is 19.3 µM (active).
`CCS(=O)(=O)C1=NSC2=NC(=O)/C(=C\c3ccc(OS(=O)(=O)c4ccccc4)cc3)C(=N)N21`: the IC50 was 19.9 µM (active).

The values above are taken from ChEMBL document CHEMBL1201862, “PubChem BioAssay data set” (2004).
